These results are taken from patent US9988400B2 (Genentech, Inc., priority 2013, dated 2018).

SMILES strings stand for the structures.

In the assay the target is T1, HEK cells stably transfected with tetracycline inducible hNR1 and hNR2A (Homo sapiens, UniProt Q05586+Q12879).
T1 construct: expressed in transfected cells; host or cells: HEK cells, stably transfected, tetracycline/doxycycline inducible
Put plainly: Assay 1: Cell-Based Assay, cytosolic calcium response to positive allosteric modulators (with 30 μM glycine and 300 nM L-glutamate, EC30). To be noted: Table 2; for EC50: cytosolic calcium response, with 30 μM glycine and 300 nM L-glutamate (EC30), — = no plateau was reached; for Max %: responses scaled relative to 100 μM L-glutamate maximal response (100%) and 0 μM L-glutamate (0%). On the procedure: Assay 1: Cell-Based Assay
HEK cells stably transfected with tetracycline inducible hNR1 and hNR2A were seeded into clear bottom 384 well poly-D-lysine coated plates (2.5×10^4 cells per well) in Minimum Essential Media (MEM; without L-) including 7.5 μg mL^−1 doxycycline and 500 μM (+)-ketamine. The cells were incubated at 37° C. in 5% CO2 for 24 h. For measurement of changes in cytosolic calcium, the seeding media was removed and the cells incubated at 37° C. for 60 min with 1× Becton Dickinson Calcium Assay Kit reagent in Hanks Balanced Salt Solution (HBSS; w/o magnesium, including 1.8 mM calcium, 0.65 mg ml^−1 probenecid and 10 μM (+)-ketamine, pH 7.15) then allowed to equilibrate to rt for 30 min. Concentration-effect curves to Positive Allosteric Modulators (PAMs) were constructed by adding different concentrations (with 30 μM glycine and 300 nM L-glutamate (EC30)) to different wells in HBSS. Compounds were added after a 10 second baseline read and maximum level of relative fluorescence units (RFU) was measured over a 5 min period. Responses were scaled relative to 100 μM L-glutamate maximal response (100%) and 0 μM L-glutamate (0%). EC50 values are provided for compounds reaching maximal response plateaus, and the max % (EC50 (- -)) only if no plateau was reached.
A four-parameter Hill equation was fitted to individual concentration-effect curves:
[formula] in which Y, S0, Sinf, AC50, n and c were effect, lower-asymptote, upper-asymptote, mid-point location, slope parameter, and concentration respectively.

T1 sequence (Q12879 23-1464, other chains not shown): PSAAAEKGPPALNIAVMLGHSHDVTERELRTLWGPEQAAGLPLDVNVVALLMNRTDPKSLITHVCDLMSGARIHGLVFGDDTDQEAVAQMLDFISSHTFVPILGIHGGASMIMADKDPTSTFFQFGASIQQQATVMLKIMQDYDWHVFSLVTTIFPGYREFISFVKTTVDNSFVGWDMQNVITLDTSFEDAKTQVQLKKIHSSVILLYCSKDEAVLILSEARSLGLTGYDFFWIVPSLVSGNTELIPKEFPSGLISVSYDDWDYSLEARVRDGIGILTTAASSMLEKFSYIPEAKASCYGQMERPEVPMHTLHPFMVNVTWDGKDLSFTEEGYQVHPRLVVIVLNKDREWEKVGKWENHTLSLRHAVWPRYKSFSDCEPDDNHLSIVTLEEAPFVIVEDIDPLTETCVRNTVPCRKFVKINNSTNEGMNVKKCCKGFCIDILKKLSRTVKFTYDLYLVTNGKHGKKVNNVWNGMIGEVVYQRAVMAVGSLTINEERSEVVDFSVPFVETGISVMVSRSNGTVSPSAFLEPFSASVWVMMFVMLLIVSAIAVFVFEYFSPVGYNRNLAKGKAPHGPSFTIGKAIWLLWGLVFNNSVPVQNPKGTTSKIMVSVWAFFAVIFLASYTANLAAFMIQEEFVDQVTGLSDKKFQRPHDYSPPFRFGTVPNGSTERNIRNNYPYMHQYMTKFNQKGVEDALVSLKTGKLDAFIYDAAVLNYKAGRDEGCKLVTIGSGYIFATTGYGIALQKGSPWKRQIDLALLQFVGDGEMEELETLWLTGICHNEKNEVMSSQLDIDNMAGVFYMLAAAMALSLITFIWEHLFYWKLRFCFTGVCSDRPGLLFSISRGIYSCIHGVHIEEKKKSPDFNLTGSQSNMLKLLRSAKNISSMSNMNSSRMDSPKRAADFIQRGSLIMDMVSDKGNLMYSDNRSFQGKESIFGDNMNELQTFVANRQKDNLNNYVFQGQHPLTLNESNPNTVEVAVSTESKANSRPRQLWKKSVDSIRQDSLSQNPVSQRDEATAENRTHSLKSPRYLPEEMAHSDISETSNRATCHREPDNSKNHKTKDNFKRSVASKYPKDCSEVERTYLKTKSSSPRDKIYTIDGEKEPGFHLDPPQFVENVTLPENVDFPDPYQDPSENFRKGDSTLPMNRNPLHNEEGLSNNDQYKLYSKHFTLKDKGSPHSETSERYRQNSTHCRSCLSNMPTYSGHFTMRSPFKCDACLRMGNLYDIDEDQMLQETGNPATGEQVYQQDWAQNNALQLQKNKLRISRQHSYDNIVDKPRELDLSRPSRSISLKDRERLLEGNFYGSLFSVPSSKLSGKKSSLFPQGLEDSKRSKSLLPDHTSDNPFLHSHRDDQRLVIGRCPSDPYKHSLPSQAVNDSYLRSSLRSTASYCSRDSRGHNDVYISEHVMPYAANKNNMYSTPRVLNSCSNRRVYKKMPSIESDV

For the compound `Cc1sc2nc(COc3ccc(F)cc3)cc(=O)n2c1C1CC1C#N` (racemic) [Example 4.18, cis-2-[7-(4-Fluorophenoxymethyl)-2-methyl-5-oxo-5H-[1,3]thiazolo[3,2-a]pyrimidin-3-yl]cyclopropane-1-carbonitrile], the EC50 came out at 5 µM and the Max % was 102%. The matching figures for `Cc1sc2nc(COc3cccc(F)c3)cc(=O)n2c1[C@@H]1C[C@H]1CO` (relative stereo) [Example 4.4, 7-((3-fluorophenoxy)methyl)-3-(trans-2-(hydroxymethyl)cyclopropyl)-2-methyl-5H-thiazolo[3,2-a]pyrimidin-5-one]: 2.5 µM and 138%. For `Cc1sc2nc(COc3ccc(F)cc3F)cc(=O)n2c1[C@@H]1C[C@H]1CO` (relative stereo) [Example 4.6, 7-(2,4-Difluorophenoxymethyl)-3-[trans-2-(hydroxymethyl)cyclopropyl]-2-methyl-5H-[1,3]thiazolo[3,2-a]pyrimidin-5-one] the same measures were 7.7 µM and 128%. Turning to `Cc1sc2nc(COc3ccc(F)c(F)c3)cc(=O)n2c1[C@@H]1C[C@H]1CO` (relative stereo) [Example 4.7, 7-(3,4-Difluorophenoxymethyl)-3-[trans-2-(hydroxymethyl)cyclopropyl]-2-methyl-5H-[1,3]thiazolo[3,2-a]pyrimidin-5-one], the EC50 is 5.8 µM and the Max % is given as 134%. Consider `Cc1sc2nc(COc3ccc(Cl)cc3)cc(=O)n2c1[C@@H]1C[C@H]1CO` (relative stereo) [Example 4.8, 7-(4-Chlorophenoxymethyl)-3-[trans-2-(hydroxymethyl)cyclopropyl]-2-methyl-5H-[1,3]thiazolo[3,2-a]pyrimidin-5-one], for which the half-maximal effective concentration (EC50) turned out to be 4.4 µM and the Max % is given as 99.3%. In the case of `Cc1sc2nc(COc3ccc(F)cn3)cc(=O)n2c1[C@@H]1C[C@H]1CO` (relative stereo) [Example 4.9, 7-[[(5-Fluoropyridin-2-yl)oxy]methyl]-3-[trans-2-(hydroxymethyl)cyclopropyl]-2-methyl-5H-[1,3]thiazolo[3,2-a]pyrimidin-5-one], the EC50 is 4.4 µM and the Max % amounted to 123%. For `Cc1sc2nc(COc3ccc(C(F)(F)F)cc3)cc(=O)n2c1[C@@H]1C[C@H]1CO` (relative stereo) [Example 4.10, 3-(trans-2-(hydroxymethyl)cyclopropyl)-2-methyl-7-((4-(trifluoromethyl)phenoxy)methyl)-5H-thiazolo[3,2-a] pyrimidin-5-one] the same measures were 4.3 µM and 108%.

Take `Cc1sc2nc(COc3ccccc3F)cc(=O)n2c1[C@@H]1C[C@H]1CO` (relative stereo) [Example 4.12, 7-((2-fluorophenoxy)methyl)-3-(trans-2-(hydroxymethyl)cyclopropyl)-2-methyl-5H-thiazolo[3,2-a]pyrimidin-5-one]: the EC50 was found to be 30.6 µM and the Max % came to 127%.

With `Cc1sc2nc(COc3ccc(C#N)cc3)cc(=O)n2c1[C@@H]1C[C@H]1CO` (relative stereo) [Example 4.13, 4-((3-(trans-2-(hydroxymethyl)cyclopropyl)-2-methyl-5-oxo-5H-thiazolo[3,2-a]pyrimidin-7-yl)methoxy)benzonitrile], the EC50 amounted to 31.1 µM and the Max % came out at 72.8%. `O=c1cc(COc2ccc(F)cc2)nc2scc([C@@H]3C[C@H]3CO)n12` (relative stereo) [Example 4.14, 7-((4-fluorophenoxy)methyl)-3-(trans-2-(hydroxymethyl)cyclopropyl)-5H-thiazolo[3,2-a]pyrimidin-5-one]: the EC50 was 7.8 µM and the Max % turned out to be 93%. The matching figures for `Cc1sc2nc(COc3ccc(F)cc3)cc(=O)n2c1[C@@H]1C[C@@H]1CO` (relative stereo) [Example 4.23, 7-(4-Fluorophenoxymethyl)-3-[cis-2-(hydroxymethyl)cyclopropyl]-2-methyl-5H-[1,3]thiazolo[3,2-a]pyrimidin-5-one]: 26.5 µM and 62.9%. The matching figures for `Cc1sc2nc(COc3ccc(F)cc3)cc(=O)n2c1[C@@H]1C[C@H]1C(F)(F)F` (relative stereo) [Example 4.24, trans-7-(4-Fluorophenoxymethyl)-2-methyl-3-[2-(trifluoromethyl)cyclopropyl]-5H-[1,3]thiazolo[3,2-a]pyrimidin-5-one]: 2.1 µM and 80%. With `Cc1sc2nc(COc3ccc(F)cc3)cc(=O)n2c1[C@@H]1C[C@H]1CC#N` (relative stereo) [Example 4.26, trans-2-[2-[7-(4-Fluorophenoxymethyl)-2-methyl-5-oxo-5H-[1,3]thiazolo[3,2-a]pyrimidin-3-yl]cyclopropyl]acetonitrile], the Max % is 98.8%. For the compound `Cc1sc2nc(COc3ccc(F)cc3)c(F)c(=O)n2c1[C@@H]1C[C@H]1CO` (relative stereo) [Example 4.29, 6-fluoro-7-((4-fluorophenoxy)methyl)-3-(trans-2-(hydroxymethyl)cyclopropyl)-2-methyl-5H-thiazolo[3,2-a]pyrimidin-5-one], the EC50 worked out at 17.5 µM and the Max % was found to be 134%. For `CCN(Cc1cc(=O)n2c([C@@H]3C[C@H]3CO)c(C)sc2n1)c1ccccn1` (relative stereo) [Example 5.7, 7-((ethyl(pyridine-2-yl)amino)methyl)-3-(trans-2-(hydroxymethyl)cyclopropyl)-2-methyl-5H-thiazolo[3,2-a] pyrimidin-5-one] the same measures were 0.867 µM and 160%.

In the case of `CCN(Cc1cc(=O)n2c([C@@H]3C[C@H]3CO)c(C)sc2n1)c1ccc(F)cc1` (relative stereo) [Example 5.17, 7-((ethyl(4-fluorophenyl)amino)methyl)-3-(trans-2-(hydroxymethyl)cyclopropyl)-2-methyl-5H-thiazolo[3,2-a] pyrimidin-5-one], the EC50 is 0.108 µM and the Max % was determined as 176%. The matching figures for `CCN(Cc1cc(=O)n2c([C@@H]3C[C@H]3CO)csc2n1)c1ccc(F)cc1` (relative stereo) [Example 5.28, 7-[(N-ethyl-4-fluoro-anilino)methyl]-3-[trans-2-(hydroxymethyl)cyclopropyl)thiazolo[3,2-a]pyrimidin-5-one]: 0.0952 µM and 176%.

Consider `CCN(Cc1cc(=O)n2c([C@@H]3C[C@H]3CF)c(C)sc2n1)c1ccc(F)cc1` (relative stereo) [Example 5.39, 7-((ethyl(4-fluorophenyl)amino)methyl)-3-(trans-2-(fluoromethyl)cyclopropyl)-2-methyl-5H-thiazolo[3,2-a]pyrimidin-5-one], for which the 50% effective concentration (EC50) was 0.952 µM and the Max % came out at 167%.

For `Cc1sc2nc(Cn3nc(C(F)(F)F)cc3C(F)(F)F)cc(=O)n2c1[C@@H]1C[C@H]1CO` (relative stereo) [Example 15.2, 7-((3,5-bis(trifluoromethyl)-1H-pyrazol-1-yl)methyl)-3-(trans-2-(hydroxymethyl)cyclopropyl)-2-methyl-5H-thiazolo[3,2-a]pyrimidin-5-one], the EC50 came to 1 µM and the Max % is reported as 167%. For `Cc1sc2nc(Cn3nc(Cl)cc3C)cc(=O)n2c1[C@@H]1C[C@H]1CO` (relative stereo) [Example 15.3, 7-((3-chloro-5-methyl-1H-pyrazol-1-yl)methyl)-3-(trans-2-(hydroxymethyl)cyclopropyl)-2-methyl-5H-thiazolo[3,2-a]pyrimidin-5-one] the same measures were 0.489 µM and 144%. Turning to `Cc1cc(Cl)n(Cc2cc(=O)n3c([C@@H]4C[C@H]4CO)c(C)sc3n2)n1` (relative stereo) [Example 15.4, 7-((5-chloro-3-methyl-1H-pyrazol-1-yl)methyl)-3-(trans-2-(hydroxymethyl)cyclopropyl)-2-methyl-5H-thiazolo[3,2-a]pyrimidin-5-one], the EC50 amounted to 0.782 µM and the Max % is recorded as 137%. On to `Cc1sc2nc(Cn3ccc(C(F)(F)F)n3)cc(=O)n2c1[C@@H]1C[C@H]1CO` (relative stereo) [Example 15.5, 3-(trans-2-(hydroxymethyl)cyclopropyl)-2-methyl-7-((3-(trifluoromethyl)-1H-pyrazol-1-yl)methyl)-5H-thiazolo[3,2-a]pyrimidin-5-one], for which the EC50 was 1.7 µM and the Max % amounted to 131%. For `Cc1sc2nc(Cn3ncc4ccccc43)cc(=O)n2c1[C@@H]1C[C@H]1CO` (relative stereo) [Example 15.6, 7-((1H-indazol-1-yl)methyl)-3-(trans-2-(hydroxymethyl)cyclopropyl)-2-methyl-5H-thiazolo[3,2-a]pyrimidin-5-one] the same measures were 9.2 µM and 138%.
